Among the data in patent publication US20220054469A1, “FARNESOID X RECEPTOR AGONISTS AND USES THEREOF” (Metacrine, Inc., priority 2018, published 2022) are EC50 values, retold here.

For the experiment, the target named is T1, hFXR (Homo sapiens, UniProt Q96RI1).
T1 construct: expressed in transfected cells; host or cells: CV-1 cells
T1 sequence (Q96RI1 1-486): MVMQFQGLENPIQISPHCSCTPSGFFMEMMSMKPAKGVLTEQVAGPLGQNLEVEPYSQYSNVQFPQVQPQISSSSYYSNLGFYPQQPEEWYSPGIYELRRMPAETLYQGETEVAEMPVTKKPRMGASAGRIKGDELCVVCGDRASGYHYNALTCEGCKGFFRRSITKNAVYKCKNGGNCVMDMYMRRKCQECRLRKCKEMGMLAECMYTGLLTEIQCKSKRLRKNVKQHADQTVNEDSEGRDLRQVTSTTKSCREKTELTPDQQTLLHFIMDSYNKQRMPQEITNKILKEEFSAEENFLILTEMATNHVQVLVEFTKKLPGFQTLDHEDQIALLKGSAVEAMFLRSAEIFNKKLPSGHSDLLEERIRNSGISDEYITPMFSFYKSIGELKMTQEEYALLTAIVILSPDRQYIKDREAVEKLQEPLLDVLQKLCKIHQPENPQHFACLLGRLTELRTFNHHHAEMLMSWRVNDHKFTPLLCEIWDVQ
T1 sequence (P19793 1-462 partner): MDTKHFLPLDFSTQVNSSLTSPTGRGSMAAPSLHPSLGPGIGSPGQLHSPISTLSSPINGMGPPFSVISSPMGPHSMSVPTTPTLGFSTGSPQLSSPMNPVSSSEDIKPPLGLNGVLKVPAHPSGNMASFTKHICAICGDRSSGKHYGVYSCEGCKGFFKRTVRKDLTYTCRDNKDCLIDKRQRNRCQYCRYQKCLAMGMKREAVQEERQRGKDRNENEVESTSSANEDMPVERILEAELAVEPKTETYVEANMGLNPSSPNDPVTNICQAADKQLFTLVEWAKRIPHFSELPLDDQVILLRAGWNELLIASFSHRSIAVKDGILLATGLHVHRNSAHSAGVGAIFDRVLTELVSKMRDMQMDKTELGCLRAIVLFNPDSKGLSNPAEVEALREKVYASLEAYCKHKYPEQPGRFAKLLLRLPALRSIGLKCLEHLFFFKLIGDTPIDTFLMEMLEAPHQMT
The experiment can be described thus: In Vitro FXR Assay (TK). The note with it: CV-1 cells transfected with hFXR, hRXR, TK-ECRE-luc and pCMX-YFP; incubated with compound for 18 hrs; luminescence. It counts as cell-based. The procedure: Example B-1: In Vitro FXR Assay (TK)
CV-1 cells were seeded at a density of 2,000,000 cells in a T175 flask with DMEM+10% charcoal double-stripped FBS and incubated at 37° C. in 5% CO2 for 18 h (O/N).
After 18 h of incubation, the medium in the T175 flask was changed with fresh DMEM+10% charcoal super-stripped serum. In a polypropylene tube, 2500 μL OptiMEM (Life Technologies, Cat #31985-062) was combined with expression plasmids for hFXR, hRXR, TK-ECRE-luc and pCMX-YFP. The tube was then briefly vortexed and incubated at room temperature for 5 minutes. Transfection reagent (X-tremeGENE HP from Roche, Cat #06 366 236 001) was added to the OptiMEM/plasmid mixture vortexed and incubated at room temperature for 20 minutes. Following incubation, the transfection reagent/DNA mixture complex was added to cells in the T175 flask and the cells were incubated at 37° C. in 5% CO2 for 18 h (O/N).
Compounds were serially diluted in DMSO and added to transfected CV-1 cells. The cells were then incubated for 18 hrs. The next day cells were lysed and examined for luminescence.

SMILES strings stand for the structures.

As a reminder, the EC50 is the concentration needed to bring the measured effect to its halfway point. On to `COc1ncc(C23CCC(CN(c4cc(-c5cnn(C(C)(C)C)c5)ccn4)C(=O)[C@H]4CC[C@H](CC(=O)O)CC4)(CC2)CC3)cc1C` [Compound 4.13, trans-2-(4-((4-(1-(tert-Butyl)-1H-pyrazol-4-yl)pyridin-2-yl)((4-(6-methoxy-5-methylpyridin-3-yl)bicyclo[2.2.2]octan-1-yl)methyl)carbamoyl)cyclohexyl)acetic acid], for which the EC50 was not above 50 nM.

Take `COc1ccc(C23CCC(CN(c4cc(-c5nc(C(C)C)no5)ccn4)C(=O)[C@H]4CC[C@H](CC(=O)O)CC4)(CC2)CC3)cc1C` [Compound 4.20, trans-2-(4-((4-(3-Isopropyl-1,2,4-oxadiazol-5-yl)pyridin-2-yl)((4-(4-methoxy-3-methylphenyl)bicyclo[2.2.2]octan-1-yl)methyl)carbamoyl)cyclohexyl)acetic acid]: the half-maximal effective concentration (EC50) fell in the range of 50 to 1000 nM.

Regarding `COc1ccc([C@H]2CC[C@H](CN(c3cc(-c4cnn(C(C)(C)C)c4)ccn3)C(=O)[C@H]3CC[C@H](CC(=O)O)CC3)CC2)cc1C` [Compound 2.05, 2-(trans-4-((4-(1-(tert-Butyl)-1H-pyrazol-4-yl)pyridin-2-yl)((trans-4-(4-methoxy-3-methylphenyl)cyclohexyl)methyl)carbamoyl)cyclohexyl)acetic acid], the half-maximal effective concentration (EC50) is 50 to 1000 nM.

On to `COc1ccc(C23CCC(CN(c4cc(-c5cnn(C(C)(C)C)c5)ccn4)C(=O)[C@H]4CC[C@H](C(=O)O)CC4)(CC2)CC3)cc1C` [Compound 4.03, trans-4-((4-(1-(tert-Butyl)-1H-pyrazol-4-yl)pyridin-2-yl)((4-(4-methoxy-3-methylphenyl)bicyclo[2.2.2]octan-1-yl)methyl)carbamoyl)cyclohexanecarboxylic acid], for which the EC50 is not above 50 nM.

With `COc1ccc(C23CCC(CN(c4cccc(-c5cnn(C(C)(C)C)c5)c4)C(=O)[C@H]4CC[C@H](CC(=O)O)CC4)(CC2)CC3)cc1C` [Compound 2.06, trans-2-(4-((3-(1-(tert-Butyl)-1H-pyrazol-4-yl)phenyl)((4-(4-methoxy-3-methylphenyl)bicyclo[2.2.2]octan-1-yl)methyl)carbamoyl)cyclohexyl)acetic acid], the EC50 was not above 50 nM.

As to `COc1ccc(C23CCC(CN(c4cncc(-c5cnn(C(C)C)c5)c4)C(=O)[C@H]4CC[C@H](CC(=O)O)CC4)(CC2)CC3)cc1C` (relative stereo) [Compound 2.11, trans-2-(4-((5-(1-Isopropyl-1H-pyrazol-4-yl)pyridin-3-yl)((4-(4-methoxy-3-methylphenyl)bicyclo[2.2.2]octan-1-yl)methyl)carbamoyl)cyclohexyl)acetic acid], the EC50 lay in the range of 50 to 1000 nM.

Turning to `COc1ccc(C23CCC(CN(C(=O)[C@@H]4CCC[C@H](CC(=O)O)C4)c4cc(-c5cnn(C(C)C)c5)ccn4)(CC2)CC3)cc1C` (relative stereo) [Compound 5, cis-2-(3-((4-(1-isopropyl-1H-pyrazol-4-yl)pyridin-2-yl)((4-(4-methoxy-3-methylphenyl)bicyclo[2.2.2]octan-1-yl)methyl)carbamoyl)cyclohexyl)acetic acid], the EC50 is not above 50 nM.

For the compound `COc1ccc(C23CCC(CN(c4cncc(-c5cnn(C(C)C)c5)n4)C(=O)[C@H]4CC[C@H](CC(=O)O)CC4)(CC2)CC3)cc1C` (relative stereo) [Compound 4.10, trans-2-(4-((6-(1-Isopropyl-1H-pyrazol-4-yl)pyrazin-2-yl)((4-(4-methoxy-3-methylphenyl)bicyclo[2.2.2]octan-1-yl)methyl)carbamoyl)cyclohexyl)acetic acid], the EC50 was in the range of 50 to 1000 nM.

With `COc1ccc(C23CCC(CN(c4cccc(-c5cnn(C(C)C)c5)n4)C(=O)[C@H]4CC[C@H](CC(=O)O)CC4)(CC2)CC3)cc1C` (relative stereo) [Compound 4.06, trans-2-(4-((6-(1-Isopropyl-1H-pyrazol-4-yl)pyridin-2-yl)((4-(4-methoxy-3-methylphenyl)bicyclo[2.2.2]octan-1-yl)methyl)carbamoyl)cyclohexyl)acetic acid], the EC50 was not above 50 nM.

`COc1ccc(C23CCC(CN(c4cccc(-c5nnc(C6CC6)o5)c4)C(=O)[C@H]4CC[C@H](CC(=O)O)CC4)(CC2)CC3)cc1C` [Compound 4.30, trans-2-(-4-((3-(5-Cyclopropyl-1,3,4-oxadiazol-2-yl)phenyl)((4-(4-methoxy-3-methylphenyl)bicyclo[2.2.2]octan-1-yl)methyl)carbamoyl)cyclohexyl)acetic acid]: the EC50 is 50 to 1000 nM.

Regarding `COc1ccc(C23CCC(CN(c4cc(-c5cnn(C(C)(C)C)c5)ccn4)C(=O)[C@H]4CC[C@H](CCC(=O)O)CC4)(CC2)CC3)cc1C` [Compound 3.04, trans-3-(4-((4-(1-(tert-Butyl)-1H-pyrazol-4-yl)pyridin-2-yl)((4-(4-methoxy-3-methylphenyl)bicyclo[2.2.2]octan-1-yl)methyl)carbamoyl)cyclohexyl)propanoic acid], the EC50 is not above 50 nM.

For the compound `COc1ccc(C23CCC(CN(c4ccnc(-c5cnn(C(C)C)c5)c4)C(=O)[C@H]4CC[C@H](CC(=O)O)CC4)(CC2)CC3)cc1C` (relative stereo) [Compound 4.05, trans-2-(4-((2-(1-Isopropyl-1H-pyrazol-4-yl)pyridin-4-yl)((4-(4-methoxy-3-methylphenyl)bicyclo[2.2.2]octan-1-yl)methyl)carbamoyl)cyclohexyl)acetic acid], the EC50 is 50 to 1000 nM.

Consider `COc1ccc(C23CCC(CN(c4ccc(F)c(-c5cnn(C(C)C)c5)c4)C(=O)[C@H]4CC[C@H](CC(=O)O)CC4)(CC2)CC3)cc1C` [Compound 2.09, trans-2-(4-((4-Fluoro-3-(1-isopropyl-1H-pyrazol-4-yl)phenyl)((4-(4-methoxy-3-methylphenyl)bicyclo[2.2.2]octan-1-yl)methyl)carbamoyl)cyclohexyl)acetic acid], for which the EC50 was not above 50 nM.

On to `COc1ccc([C@H]2CC[C@H](CN(c3cccc(-c4cnn(C(C)C)c4)c3)C(=O)[C@H]3CC[C@H](C(=O)O)CC3)CC2)cc1C` [Compound 2.01, trans-4-((3-(1-Isopropyl-1H-pyrazol-4-yl)phenyl)((trans-4-(4-methoxy-3-methylphenyl)cyclohexyl)methyl)carbamoyl) cyclohexanecarboxylic acid], for which the EC50 is not above 50 nM.

As for `COc1ccc(C23CCC(CN(C(=O)[C@@H]4CCC[C@@H](CC(=O)O)C4)c4cc(-c5cnn(C(C)C)c5)ccn4)(CC2)CC3)cc1C` (relative stereo) [Compound 5.01, trans-2-(3-((4-(1-Isopropyl-1H-pyrazol-4-yl)pyridin-2-yl)((4-(4-methoxy-3-methylphenyl)bicyclo[2.2.2]octan-1-yl)methyl)carbamoyl)cyclohexyl)acetic acid], the EC50 was 50 to 1000 nM.

For the compound `COc1ccc(C23CCC(CN(c4cc(-n5cnc(C6CC6)n5)ccn4)C(=O)[C@H]4CC[C@H](CC(=O)O)CC4)(CC2)CC3)cc1C` [Compound 4.27, trans-2-(4-((4-(3-Cyclopropyl-1H-1,2,4-triazol-1-yl)pyridin-2-yl)((4-(4-methoxy-3-methylphenyl)bicyclo[2.2.2]octan-1-yl)methyl)carbamoyl)cyclohexyl)acetic acid], the EC50 is not above 50 nM.

`COc1ccc(C23CCC(CN(c4cc(-c5cnn(C(C)(C)C)c5)ncn4)C(=O)[C@H]4CC[C@H](CC(=O)O)CC4)(CC2)CC3)cc1C` [Compound 4.07, trans-2-(4-((6-(1-(tert-Butyl)-1H-pyrazol-4-yl)pyrimidin-4-yl)((4-(4-methoxy-3-methylphenyl)bicyclo[2.2.2]octan-1-yl)methyl)carbamoyl)cyclohexyl)acetic acid]: the EC50 lay in the range of 50 to 1000 nM.

With `COc1ccc(C23CCC(CN(c4cc(-n5ccc(C(C)C)n5)ccn4)C(=O)[C@H]4CC[C@H](CC(=O)O)CC4)(CC2)CC3)cc1C` [Compound 4.24, trans-2-(4-((4-(3-Isopropyl-1H-pyrazol-1-yl)pyridin-2-yl)((4-(4-methoxy-3-methylphenyl)bicyclo[2.2.2]octan-1-yl)methyl)carbamoyl)cyclohexyl)acetic acid], the 50% effective concentration (EC50) fell in the range of 50 to 1000 nM.
